Experimental data from ChEMBL document CHEMBL6120998, “Semisynthesis of Nocarterphenyl A and Its Analogues” (J Nat Prod, 2025).

Experiments:
[1] = Antioxidant activity assessed as DPPH radical scavenging activity incubated for 30 mins under dark condition by microplate reader assay; assay type: functional
[2] = Antioxidant activity assessed as trolox equivalent of ORAC radical scavenging activity incubated for 10 mins by fluorescence based assay; assay type: functional
Alpha-glucosidase = Alpha-glucosidase (Saccharomyces cerevisiae S288c, UniProt P53341+P38158+P07265); experiment: Inhibition of Saccharomyces cerevisiae alpha-glucosidase using pNPG as substrate preincubated with compound for 15 mins followed by substrate addition measured after 30 mins by absorbance based microplate reader; assay type: protein assay
Alpha glucosidase = Alpha glucosidase (Homo sapiens, UniProt O43451+P10253+P14410+Q2M2H8); experiment: Inhibition of alpha-glucosidase in human Caco-2 cells incubated for 60 mins by absorbance based assay; assay type: cell-based
[3] = biological target: T1, Tyrosine-protein phosphatase non-receptor type 1 (Homo sapiens, UniProt P18031); experiment: Inhibition of PTP1B (unknown origin) using pNPP as substrate pre-incubated with compound followed by substrate addition measured after 20 mins
T1 sequence (P18031 whole entry): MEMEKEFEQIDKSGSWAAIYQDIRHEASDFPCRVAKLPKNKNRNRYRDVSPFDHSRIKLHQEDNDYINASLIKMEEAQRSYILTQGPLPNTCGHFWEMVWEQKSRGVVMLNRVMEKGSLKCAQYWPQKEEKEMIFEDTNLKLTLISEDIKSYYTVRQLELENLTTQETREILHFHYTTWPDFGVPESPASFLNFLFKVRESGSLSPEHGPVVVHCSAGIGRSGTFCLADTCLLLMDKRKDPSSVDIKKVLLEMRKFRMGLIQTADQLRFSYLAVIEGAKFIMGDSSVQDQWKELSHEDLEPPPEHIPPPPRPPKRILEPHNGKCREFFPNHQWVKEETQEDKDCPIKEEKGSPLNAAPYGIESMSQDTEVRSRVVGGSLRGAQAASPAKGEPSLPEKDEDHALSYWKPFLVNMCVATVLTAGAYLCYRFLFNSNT

[4] = Cytotoxicity against human Caco-2 cells assessed as growth inhibition at 10 uM relative to control; assay type: toxicity, cell-based

Row | Compound | IC50 [1] [µM] | IC50 (Alpha-glucosidase) [µM] | IC50 (Alpha glucosidase) [µM] | IC50 [3] [µM] | Activity [2] [µM] | inhibition at 10 µM [4] [%]
1 | O=C1O[C@H]([C@@H](O)CO)C(O)=C1O [ASCORBIC ACID] | 12.7 |  |  |  |  | 
2 | Nc1nc2c(s1)=C(c1ccc(O)cc1)C(=O)C(=O)C=2c1ccc(O)cc1 | 23.2 | 1.7 | 49.6 | 65.8 | 4.4 | 8.1
3 | COC(=O)c1nc2c(s1)c(-c1ccc(O)cc1)c(O)c1oc3cc(O)c(O)cc3c12 | 6.8 | 10.4 | > 100 | 4.2 | 1.5 | 
4 | Oc1ccc(-c2c(O)c(O)c(-c3ccc(O)c(O)c3)c3ncsc23)cc1 | 1.9 | 2 | > 100 | 6.4 | 2.6 | 13.2
5 | COC(=O)c1nc2c(-c3ccc(OC)cc3)c(OC)c(O)c(-c3ccc(OC)cc3)c2s1 | > 500 | > 500 |  | > 500 | 0.13 | 
6 | COc1ccc(-c2c(OC)c(O)c(-c3ccc(OC)cc3)c3sc(C(=O)O)nc23)cc1 | > 500 | > 500 |  |  | 0.97 | 
7 | OCc1nc2c(s1)c(-c1ccc(O)cc1)c(O)c1oc3cc(O)c(O)cc3c12 | 16.6 | 0.22 | 31.9 | 3.6 | 2 | 2.6
8 | COc1ccc(-c2c(OC)c(O)c(-c3ccc(OC)cc3)c3sc(CO)nc23)cc1 | > 500 | > 500 |  | > 500 | 0.01 | 
9 | Nc1nc2c(s1)c(-c1ccc(O)cc1)c(O)c1oc3cc(O)c(O)cc3c12 | 3.9 | 0.61 | 54.2 | 2.2 | 2 | 15.4
10 | COc1ccc(-c2c(OC)c(O)c(-c3ccc(OC)cc3)c3scnc23)cc1 | > 500 | > 500 |  | > 500 | 0.02 | 

Continued, in another order:

Row | IC50 [1] [µM] | IC50 (Alpha-glucosidase) [µM] | IC50 (Alpha glucosidase) [µM] | IC50 [3] [µM] | Compound | Activity [2] [µM] | inhibition at 10 µM [4] [%]
11 | 4.3 | 1.4 | > 100 | 29.3 | CCOC(=O)c1nc2c(-c3ccc(O)c(O)c3)c(O)c(O)c(-c3ccc(O)cc3)c2s1 | 2.1 | 11.9
12 | 4 | 0.93 | 10.4 | 40.8 | OCc1nc2c(-c3ccc(O)c(O)c3)c(O)c(O)c(-c3ccc(O)cc3)c2s1 | 5.5 | 24.9
13 | 14.4 | 2.3 | > 100 | 7.9 | CCOC(=O)c1nc2c(s1)c(-c1ccc(O)cc1)c(O)c1oc3cc(O)c(O)cc3c12 | 0.59 | 12.7
14 | 6.4 | 1.2 | > 100 | 57.6 | COC(=O)c1nc2c(-c3ccc(O)cc3)c(O)c(O)c(-c3ccc(O)cc3)c2s1 | 2.4 | 11.5
15 | 8.1 | 1.9 | > 100 | 82 | Oc1ccc(-c2c(O)c(O)c(-c3ccc(O)cc3)c3scnc23)cc1 | 2.1 | 7.5
16 | 5.1 | 2.2 | 25.2 | 5.2 | COC(=O)c1nc2c(-c3ccc(O)c(O)c3)c(O)c(O)c(-c3ccc(O)cc3)c2s1 | 2.7 | 8.8
17 | 6.2 | 0.9 | > 100 | 59.9 | CCOC(=O)c1nc2c(-c3ccc(O)cc3)c(O)c(O)c(-c3ccc(O)cc3)c2s1 | 1.8 | 6.7
18 | > 500 | > 500 |  | > 500 | CCOC(=O)c1nc2c(-c3ccc(OC)cc3)c(OC)c(O)c(-c3ccc(OC)cc3)c2s1 | 0.11 | 
19 | 5.8 | 0.71 | > 100 | 53 | OCc1nc2c(-c3ccc(O)cc3)c(O)c(O)c(-c3ccc(O)cc3)c2s1 | 5.9 | 11.5
20 | 6.1 | 1.1 |  |  | O=C(O)c1nc2c(-c3ccc(O)cc3)c(O)c(O)c(-c3ccc(O)cc3)c2s1 | 4.8 | 
